Assay [1] has as its system E. coli W 3630 RGN 238. The assay can be described thus: microbe, parasite or virus in culture. Format: cell-based. Particulars: Escherichia coli, W3630RGN238, 20 h.
The test system of assay [2] is Sta. aureus 209P JC-1. The assay can be described thus: antibacterial spectrum, MIC (Table 2). Particulars: Staphylococcus aureus, nutrient agar, 37° C., 20 hours. The assay is classed as cell-based.
Assay [3] concerns Escherichia coli GN. As to the kind of experiment: Minimum Inhibitory Concentration "in vitro" (Table 1). Format: cell-based.
The subject of assay [4] is Citro freundii GN 346/16. As to the kind of experiment: antibacterial spectrum, MIC (Table 2). The following applies: nutrient agar, 37° C., 20 hours. The assay is classed as cell-based.
Assay [5] deals with B. subtilis ATCC 6633. The assay can be described thus: antibacterial spectrum, MIC (Table 2). The assay is classed as cell-based. Particulars: Bacillus subtilis, ATCC6633, nutrient agar, 37° C., 20 hours.
In assay [6] the test system is Escherichia coli No. 29. As to the kind of experiment: Minimum Inhibitory Concentration "in vitro" (Table 1). The assay is classed as cell-based.
Assay [7] deals with Sta. aureus Smith (I). As to the kind of experiment: antibacterial spectrum, MIC (Table 2). The assay is classed as cell-based. Particulars: Staphylococcus aureus, nutrient agar, 37° C., 20 hours.
Assay [8] deals with E. coli W 3630 RGN 823. As to the kind of experiment: microbe, parasite or virus in culture. The assay is classed as cell-based. The following applies: Escherichia coli, W3630RGN823, 20 h.
For assay [9], the system named is Ps. aeruginosa MB-3829. As to the kind of experiment: antibacterial spectrum, MIC (Table 2). Format: cell-based. The following applies: Pseudomonas aeruginosa.
Assay [10] concerns Escherichia coli No. 29. The assay can be described thus: therapeutic treatment of bacterial infection in mice, ED50. The assay is classed as in vivo. The following applies: male ICR mice; E. coli No. 29 intraperitoneally, 2.0×10^7 cells per mouse; subcutaneous injection 30 minutes after inoculation. On the procedure: Thirty minutes after the inoculation, the mice were each treated by subcutaneous injection of 0.2 ml of a solution of the test compound in physiological saline. In this way, the ED50 value of the test compounds was determined. Cefoxitin and the 6059-S Compound (di-Na salt) were also tested in the same manner as above, for the comparison purpose.

The test system of assay [11] is Pro. mirabilis GN 79. As to the kind of experiment: antibacterial spectrum, MIC (Table 2). The assay is classed as cell-based. Particulars: Proteus mirabilis, GN79, nutrient agar, 37° C., 20 hours.
Assay [12] concerns Sal. typhimurium LT-2. The assay can be described thus: antibacterial spectrum, MIC (Table 2). The assay is classed as cell-based. Particulars: Salmonella enterica, nutrient agar, 37° C., 20 hours.
In assay [13] the test system is Kleb. pneumoniae GN 69. The assay can be described thus: antibacterial spectrum, MIC (Table 2). Particulars: Klebsiella pneumoniae, GN69, nutrient agar, 37° C., 20 hours. Format: cell-based.
Assay [14] concerns Pro. morganii 1510. As to the kind of experiment: antibacterial spectrum, MIC (Table 2). The assay is classed as cell-based. The following applies: Morganella morganii, nutrient agar, 37° C., 20 hours.
Assay [15] deals with Pro. vulgaris GN 76. The assay can be described thus: antibacterial spectrum, MIC (Table 2). The assay is classed as cell-based. Particulars: Proteus vulgaris, GN76, nutrient agar, 37° C., 20 hours.
For assay [16], the system named is Ps. cepacia M-0527. As to the kind of experiment: antibacterial spectrum, MIC (Table 2). Format: cell-based. The following applies: Burkholderia cepacia, M0527, nutrient agar, 37° C., 20 hours.
In assay [17] the test system is E. coli ML 1410. The assay can be described thus: antibacterial spectrum, MIC (Table 2). Particulars: Escherichia coli, ML1410, nutrient agar, 37° C., 20 hours. Format: cell-based.
Assay [18] has as its system Shigella dysenteriae Shigae. The assay can be described thus: microbe, parasite or virus in culture. Particulars: 20 h. The assay is classed as cell-based.

≈ marks a conversion by molar mass, not a printed value. Where a name gives a salt, the structure may show the parent alone. Read-outs that look alike come from different tables or passages of the source. A value given as a limit tells only on which side of the number the result lay.

For `CO[C@@]1(NC(=O)CSC[C@@H](N)C(=O)O)C(=O)N2C(C(=O)O)=C(CSc3nnnn3C)CO[C@@H]21` [Example 1, 7β-[(2D-2-amino-2-carboxy)ethylthioacetoamido]-7α-methoxy-3-[(1-methyl-1H-tetrazol-5-yl)thiomethyl]-1-oxadethia-3-cephem-4-carboxylic acid sodium salt], the MIC in assay [1] was found to be 0.39 µg/mL; in assay [2], 3.13 µg/mL; in assay [3], 0.39 µg/mL; in assay [4], 0.78 µg/mL; in assay [5] it was 1.56 µg/mL; in [6], 0.39 µg/mL. Moreover, the MIC in [7] was 1.56 µg/mL; in assay [8], at most 0.025 µg/mL; in assay [9] (MB3829, Ps. aeruginosa MB-3829, nutrient agar, 37° C., 20 hours, read-out: MIC), 12.5 µg/mL; in [11] it was 0.2 µg/mL; in assay [12] it was 0.39 µg/mL; in assay [13], 0.78 µg/mL. In addition, the MIC came out at 0.78 µg/mL in assay [14]; 0.39 µg/mL in [15]; 3.13 µg/mL in assay [16]; 0.39 µg/mL in assay [17]; 0.2 µg/mL in [18]. The compound further yielded an ED50 value in [10] of 0.03 mg/mouse.

In the case of `Cn1nnnc1SCC1=C(C(=O)O)N2C(=O)[C@@H](NC(=O)CSC[C@@H](N)C(=O)O)[C@H]2OC1` [Example 2, 7β-[(2D-2-Amino-2-carboxy)ethylthioacetoamido]-3-[(1-methyl-1H-tetrazol-5-yl)thiomethyl]-1-oxadethia-3-cephem-4-carboxylic acid sodium salt], the MIC in [3] is 3.13 µg/mL; in assay [6], 0.39 µg/mL. Besides, in [10], the ED50 value is 0.05 mg/mouse.

`CO[C@@]1(NC(=O)Cc2cccs2)C(=O)N2C(C(=O)O)=C(COC(N)=O)CS[C@@H]21` [Cefoxitin, reference compound] yielded an ED50 value in assay [10] of 0.50 mg/mouse.

In the case of `CO[C@@]1(NC(=O)C(C(=O)O)c2ccc(O)cc2)C(=O)N2C(C(=O)O)=C(CSc3nnnn3C)CO[C@@H]21` (stereo partly drawn) [6059-S Compound, 7β-(α-p-hydroxyphenyl-α-carboxyacetoamido)-7α-methoxy-3-[(1-methyl-1H-tetrazole-5-yl)thiomethyl]-1-oxadethia-3-cephem-4-carboxylic acid, reference compound], the MIC came out at 0.2 µg/mL (≈ 0.384 µM) in assay [1]; 6.25 µg/mL (≈ 12 µM) in [2]; 0.1 µg/mL (≈ 0.192 µM) in [4]; 25 µg/mL (≈ 48 µM) in assay [5]; 6.25 µg/mL (≈ 12 µM) in [7]; 0.05 µg/mL (≈ 0.0961 µM) in [8]. The MIC in [9] (MB3829, 20 h) came to 3.13 µg/mL (≈ 6.01 µM); in assay [11] it was 0.39 µg/mL (≈ 0.749 µM); in assay [12], 0.2 µg/mL (≈ 0.384 µM); in assay [13], 0.39 µg/mL (≈ 0.749 µM); in [14], 0.39 µg/mL (≈ 0.749 µM); in [15], 0.39 µg/mL (≈ 0.749 µM). Moreover, the MIC in [16] amounted to 6.25 µg/mL (≈ 12 µM); in assay [17] it was 0.1 µg/mL (≈ 0.192 µM); in assay [18] it was 0.1 µg/mL (≈ 0.192 µM). This compound displayed an ED50 value in [10] of 0.16 mg/mouse.

Consider `CO[C@@]1(NC(=O)CSC[C@@H](N)C(=O)O)C(=O)N2C(C(=O)[O-])=C(C[n+]3ccc(C(N)=O)cc3)CO[C@@H]21` [Example 3, 7β-[(2D-2-Amino-2-carboxy)ethylthioacetoamido]-7α-methoxy-3-[(4-carbamoylpyridinium)methyl]-1-oxadethia-3-cephem-4-carboxylic acid], for which the MIC in assay [3] and in assay [6] was 0.78 µg/mL (≈ 1.53 µM) throughout.

Source of the values: patent publication US4325951A, “1-Oxadethiacephalosporin derivatives and antibacterial use thereof” (Meiji Seika Kaisha, Ltd., priority 1979, dated 1982).
